# Assay results as given in patent US20170190705A1, “Compositions and Methods for Inhibiting BMP” (THE BRIGHAM AND WOMAN'S HOSPITAL, INC., priority 2014, published 2017).
# Experiments:
# Type in all cases: biochemical
# CAMK2α = CAMK2α (Homo sapiens, UniProt Q9UQM7); assay: Kinome profiling CAMK2α; conditions: read-out: Inhibitory activity CAMK2α; for inhibition at 0.1 µM: 100 nM
# Description: (§1) . The kinome-wide selectivity was determined following the methods previously reported by Mohedas et al., ACS Chem Biol 2013, 8, 1291-1302 and Sanvitale et al., PLoS One 2013, 8, e62721.
# ITK = target: T1, ITK (Homo sapiens, UniProt Q08881); assay: Kinome profiling ITK; conditions: read-out: Inhibitory activity ITK; for inhibition at 0.1 µM: 100 nM
# T1 sequence (Q08881 1-620): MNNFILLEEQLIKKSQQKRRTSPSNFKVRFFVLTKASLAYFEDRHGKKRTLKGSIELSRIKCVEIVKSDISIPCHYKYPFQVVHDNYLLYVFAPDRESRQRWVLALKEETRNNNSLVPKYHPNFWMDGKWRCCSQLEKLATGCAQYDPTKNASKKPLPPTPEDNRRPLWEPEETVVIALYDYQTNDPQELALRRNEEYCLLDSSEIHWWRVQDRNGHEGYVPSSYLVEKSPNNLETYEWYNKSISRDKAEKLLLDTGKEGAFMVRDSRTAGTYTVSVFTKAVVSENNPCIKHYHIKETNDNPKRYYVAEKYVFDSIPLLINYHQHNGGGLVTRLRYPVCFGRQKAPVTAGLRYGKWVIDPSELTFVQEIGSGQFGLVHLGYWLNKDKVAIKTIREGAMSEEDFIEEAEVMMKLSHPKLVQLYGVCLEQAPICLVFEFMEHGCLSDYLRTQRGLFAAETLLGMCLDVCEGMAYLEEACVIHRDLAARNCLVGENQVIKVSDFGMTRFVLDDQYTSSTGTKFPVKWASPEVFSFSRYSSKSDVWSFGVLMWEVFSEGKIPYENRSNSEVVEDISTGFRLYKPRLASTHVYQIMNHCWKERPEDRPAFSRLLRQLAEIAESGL
# Description: as §1
# JAK3 = target: T2, JAK3 (Homo sapiens, UniProt P52333); assay: Kinome profiling JAK3; conditions: read-out: Inhibitory activity JAK3; for inhibition at 0.1 µM: 100 nM
# T2 sequence (P52333 1-1124): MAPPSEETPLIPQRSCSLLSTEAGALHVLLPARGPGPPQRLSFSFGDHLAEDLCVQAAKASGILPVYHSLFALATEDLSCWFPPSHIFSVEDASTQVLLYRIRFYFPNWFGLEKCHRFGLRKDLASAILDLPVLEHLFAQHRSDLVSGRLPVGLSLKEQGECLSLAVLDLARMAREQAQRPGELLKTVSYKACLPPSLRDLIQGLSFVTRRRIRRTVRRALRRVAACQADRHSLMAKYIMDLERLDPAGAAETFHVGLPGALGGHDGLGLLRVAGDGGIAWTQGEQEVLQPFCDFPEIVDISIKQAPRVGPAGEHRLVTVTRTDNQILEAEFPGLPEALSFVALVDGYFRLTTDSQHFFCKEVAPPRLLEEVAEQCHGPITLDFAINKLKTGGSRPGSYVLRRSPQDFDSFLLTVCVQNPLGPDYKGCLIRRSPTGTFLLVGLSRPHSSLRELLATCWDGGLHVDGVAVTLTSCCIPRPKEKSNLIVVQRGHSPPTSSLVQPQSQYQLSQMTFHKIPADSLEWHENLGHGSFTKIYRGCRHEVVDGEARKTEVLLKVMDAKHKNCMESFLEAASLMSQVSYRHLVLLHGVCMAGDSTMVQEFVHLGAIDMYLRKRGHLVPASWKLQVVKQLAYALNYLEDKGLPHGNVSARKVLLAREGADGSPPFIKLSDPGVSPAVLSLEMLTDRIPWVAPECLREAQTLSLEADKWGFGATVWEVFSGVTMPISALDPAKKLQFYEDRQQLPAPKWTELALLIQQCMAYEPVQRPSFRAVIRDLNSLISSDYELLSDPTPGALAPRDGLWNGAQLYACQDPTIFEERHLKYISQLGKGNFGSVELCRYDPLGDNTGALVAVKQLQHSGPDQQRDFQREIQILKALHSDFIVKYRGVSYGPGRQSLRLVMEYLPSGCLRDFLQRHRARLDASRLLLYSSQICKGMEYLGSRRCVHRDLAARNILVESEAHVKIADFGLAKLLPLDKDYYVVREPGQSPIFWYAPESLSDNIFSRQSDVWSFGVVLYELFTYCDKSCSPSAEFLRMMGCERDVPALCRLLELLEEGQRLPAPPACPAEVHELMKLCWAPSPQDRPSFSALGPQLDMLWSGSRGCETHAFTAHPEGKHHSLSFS
# Description: as §1
# CAMK1δ = CAMK1δ (Homo sapiens, UniProt Q8IU85); assay: Kinome profiling CAMK1δ; conditions: read-out: Inhibitory activity CAMK1δ; for inhibition at 0.1 µM: 100 nM
# Description: as §1
# TBK1 = target: T3, TBK1 (Homo sapiens, UniProt Q9UHD2); assay: Kinome profiling TBK1; conditions: read-out: Inhibitory activity TBK1; for inhibition at 0.1 µM: 100 nM
# T3 sequence (Q9UHD2 1-729): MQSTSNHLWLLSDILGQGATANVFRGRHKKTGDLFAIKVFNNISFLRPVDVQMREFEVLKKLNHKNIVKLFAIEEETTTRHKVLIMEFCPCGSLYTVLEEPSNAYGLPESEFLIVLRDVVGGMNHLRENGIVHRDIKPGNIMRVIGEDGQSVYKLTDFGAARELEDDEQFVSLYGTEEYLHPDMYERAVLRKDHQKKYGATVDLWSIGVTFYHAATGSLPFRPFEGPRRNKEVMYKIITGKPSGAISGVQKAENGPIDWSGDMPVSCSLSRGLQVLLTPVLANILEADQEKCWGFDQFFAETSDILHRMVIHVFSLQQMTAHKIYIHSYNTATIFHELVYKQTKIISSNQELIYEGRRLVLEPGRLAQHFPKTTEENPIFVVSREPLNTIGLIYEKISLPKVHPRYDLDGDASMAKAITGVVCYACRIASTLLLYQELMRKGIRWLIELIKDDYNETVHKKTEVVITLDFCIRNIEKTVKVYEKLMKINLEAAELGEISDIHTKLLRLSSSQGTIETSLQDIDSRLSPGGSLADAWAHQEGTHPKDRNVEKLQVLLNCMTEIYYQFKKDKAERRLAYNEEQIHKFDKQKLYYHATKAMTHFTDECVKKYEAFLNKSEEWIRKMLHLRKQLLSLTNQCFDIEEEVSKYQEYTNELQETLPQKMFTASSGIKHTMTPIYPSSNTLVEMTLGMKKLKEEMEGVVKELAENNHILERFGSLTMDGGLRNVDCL
# Description: as §1
# SRC = SRC (Homo sapiens, UniProt P12931); assay: Kinome profiling SRC; conditions: read-out: Inhibitory activity SRC; for inhibition at 0.1 µM: 100 nM
# Description: as §1
# Chain of CAMK1δ (Q8IU85 whole entry): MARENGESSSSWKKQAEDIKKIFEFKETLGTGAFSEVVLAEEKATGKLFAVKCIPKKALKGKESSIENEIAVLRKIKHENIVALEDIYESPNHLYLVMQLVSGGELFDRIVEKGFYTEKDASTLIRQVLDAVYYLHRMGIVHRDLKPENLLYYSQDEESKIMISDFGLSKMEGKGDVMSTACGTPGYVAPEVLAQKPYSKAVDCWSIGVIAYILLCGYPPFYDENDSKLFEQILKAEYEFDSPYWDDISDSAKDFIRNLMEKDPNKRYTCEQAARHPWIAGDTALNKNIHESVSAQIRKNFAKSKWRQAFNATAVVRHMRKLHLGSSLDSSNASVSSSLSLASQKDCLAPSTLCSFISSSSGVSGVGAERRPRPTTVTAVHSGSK
# Chain of SRC (P12931 whole entry): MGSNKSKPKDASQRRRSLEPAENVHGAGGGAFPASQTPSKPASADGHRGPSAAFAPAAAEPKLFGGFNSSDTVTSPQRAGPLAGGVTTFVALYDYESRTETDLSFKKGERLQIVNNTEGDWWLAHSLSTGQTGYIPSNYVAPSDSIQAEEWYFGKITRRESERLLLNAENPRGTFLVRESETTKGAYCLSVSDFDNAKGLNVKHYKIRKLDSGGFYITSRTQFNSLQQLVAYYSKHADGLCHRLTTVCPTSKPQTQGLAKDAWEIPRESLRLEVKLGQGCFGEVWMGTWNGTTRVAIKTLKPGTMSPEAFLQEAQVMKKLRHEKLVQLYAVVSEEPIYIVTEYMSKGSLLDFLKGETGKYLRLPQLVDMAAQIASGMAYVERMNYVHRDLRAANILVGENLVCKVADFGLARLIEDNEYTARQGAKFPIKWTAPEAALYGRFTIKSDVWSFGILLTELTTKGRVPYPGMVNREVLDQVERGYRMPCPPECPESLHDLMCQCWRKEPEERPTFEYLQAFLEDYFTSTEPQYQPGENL
# Chain of CAMK2α (Q9UQM7 whole entry): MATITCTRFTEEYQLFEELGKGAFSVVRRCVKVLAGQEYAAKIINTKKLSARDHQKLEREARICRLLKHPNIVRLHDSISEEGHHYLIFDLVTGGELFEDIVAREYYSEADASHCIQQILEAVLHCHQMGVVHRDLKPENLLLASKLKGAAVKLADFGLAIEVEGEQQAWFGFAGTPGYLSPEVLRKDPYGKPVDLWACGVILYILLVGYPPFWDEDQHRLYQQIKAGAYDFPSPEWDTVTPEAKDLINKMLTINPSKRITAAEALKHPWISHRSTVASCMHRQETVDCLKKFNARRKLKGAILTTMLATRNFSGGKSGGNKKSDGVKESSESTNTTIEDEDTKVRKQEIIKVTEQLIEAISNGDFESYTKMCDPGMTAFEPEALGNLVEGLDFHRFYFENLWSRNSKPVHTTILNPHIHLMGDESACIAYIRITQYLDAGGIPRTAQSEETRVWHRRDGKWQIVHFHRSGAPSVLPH
Structure (SMILES),inhibition at 0.1 µM (CAMK2α),inhibition at 1 µM (CAMK2α),inhibition at 0.1 µM (ITK),inhibition at 1 µM (ITK),inhibition at 0.1 µM (JAK3),inhibition at 1 µM (JAK3),inhibition at 0.1 µM (CAMK1δ),inhibition at 1 µM (CAMK1δ),inhibition at 0.1 µM (TBK1),inhibition at 1 µM (TBK1),inhibition at 0.1 µM (SRC),inhibition at 1 µM (SRC)
"COc1cc(-c2cc(-c3ccc(N4CCNCC4)cc3)cnc2C)cc(OC)c1OC [Compound 10, 1-(4-(6-methyl-5-(3,4,5-trimethoxyphenyl)pyridin-3-yl)phenyl)piperazine]",-1%,-1%,0%,-1%,3%,3%,1%,2%,1%,4%,8%,23%
"COc1cc(-c2cc(-c3ccc(N4CCNCC4)cc3)cnc2N)cc(OC)c1OC [Compound 15, 5-(4-(piperazin-1-yl)phenyl)-3-(3,4,5-trimethoxyphenyl)pyridin-2-amine]",1%,-1%,0%,2%,0%,3%,0%,-1%,6%,23%,40%,81%
